Data from US12122778B2, “Activating pyruvate kinase R” (Novo Nordisk Health Care AG, priority 2018, dated 2024).

Key:
PKR(wt) = PKR(wt) (Homo sapiens, UniProt P30613); test: Luminescence Biochemical Assay (Kinase Glo Plus), wild type PKR; conditions: without FBP; for activation at 1.54 µM: 1.54 μM compound, read-out: AC50 LUM KGP woFBP % Fold@1.54 μM mean; for AC50: read-out: AC50 LUM KGP woFBP AC50 μM gmean; for Emax: read-out: AC50 LUM KGP woFBP MAX % FOLD mean
PKR(G332S) = PKR(G332S) (Homo sapiens, UniProt P30613, G332S); test: Luminescence Biochemical Assay (Kinase Glo Plus), PKR G332S mutant; conditions: with FBP; for activation at 1.54 µM: 1.54 μM compound, read-out: AC50 LUM KGP FBP % Fold@1.54 μM mean; for AC50: read-out: AC50 LUM KGP FBP AC50 μM gmean (column A); for Emax: read-out: AC50 LUM KGP FBP MAX % FOLD mean
PKR(G332S), sequence (P30613 whole entry G332S): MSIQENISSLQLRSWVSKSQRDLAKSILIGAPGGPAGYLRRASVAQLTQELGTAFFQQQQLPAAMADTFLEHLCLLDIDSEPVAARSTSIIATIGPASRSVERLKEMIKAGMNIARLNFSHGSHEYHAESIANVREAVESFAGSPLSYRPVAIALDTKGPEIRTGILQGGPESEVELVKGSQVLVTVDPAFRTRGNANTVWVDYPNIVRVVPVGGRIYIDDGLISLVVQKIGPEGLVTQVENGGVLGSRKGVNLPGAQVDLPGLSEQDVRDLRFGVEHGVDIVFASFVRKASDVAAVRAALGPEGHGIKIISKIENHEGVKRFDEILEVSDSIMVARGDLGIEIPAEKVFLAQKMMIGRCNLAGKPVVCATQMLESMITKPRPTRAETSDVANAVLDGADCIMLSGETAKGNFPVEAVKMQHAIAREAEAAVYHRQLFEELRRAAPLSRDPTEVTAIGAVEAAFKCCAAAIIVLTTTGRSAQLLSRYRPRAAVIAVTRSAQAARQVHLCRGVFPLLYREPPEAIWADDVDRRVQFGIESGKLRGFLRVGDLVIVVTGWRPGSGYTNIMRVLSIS

PKR(R510Q) = PKR(R510Q) (Homo sapiens, UniProt P30613, R510Q); test: Luminescence Biochemical Assay (Kinase Glo Plus), PKR R510Q mutant; conditions: without FBP; for activation at 1.54 µM: 1.54 μM compound, read-out: AC50 LUM KGP woFBP % Fold@1.54 μM mean; for AC50: read-out: AC50 LUM KGP woFBP AC50 μM gmean; for Emax: read-out: AC50 LUM KGP woFBP MAX % FOLD mean
PKR(R510Q), sequence (P30613 whole entry R510Q): as the sequence (P30613 whole entry G332S) above, with S332G, R510Q counted along it

PKR(wt), sequence (P30613 whole entry): as the sequence (P30613 whole entry G332S) above, with S332G counted along it

Row | Compound | activation at 1.54 µM (PKR(wt)) [%] | AC50 (PKR(wt)) [µM] | Emax (PKR(wt)) [%] | activation at 1.54 µM (PKR(G332S)) [%] | AC50 (PKR(G332S)) [µM] | Emax (PKR(G332S)) [%] | activation at 1.54 µM (PKR(R510Q)) [%] | AC50 (PKR(R510Q)) [µM] | Emax (PKR(R510Q)) [%]
1 | Cc1nc(CC(=O)N2CC3=C(C2)CN(S(=O)(=O)c2ccccn2)C3)cs1 [Example 18-68, 2-(2-Methyl-1,3-thiazol-4-yl)-1-[5-(pyridine-2-sulfonyl)-1H,2H,3H,4H,5H,6H-pyrrolo[3,4-c]pyrrol-2-yl]ethan-1-one] | 75 to 250 | 1 to 40 | 250 to 500 | 75 to 250 | 0.1 to 1 | 75 to 250 | 75 to 250 | 1 to 40 | 75 to 250
2 | O=C([C@@H]1CCCO1)N1CC2=C(C1)CN(S(=O)(=O)c1ccccn1)C2 [Example 18-69, 2-({5-[(2S)-oxolane-2-carbonyl]-1H,2H,3H,4H,5H,6H-pyrrolo[3,4-c]pyrrol-2-yl}sulfonyl)pyridine] | 75 to 250 | 1 to 40 | 75 to 250 | 75 to 250 | 1 to 40 | 75 to 250 | 75 to 250 | 1 to 40 | 75 to 250
3 | O=C(Cn1cnnn1)N1CC2=C(C1)CN(S(=O)(=O)c1cccnc1)C2 [Example 18-70, 1-[5-(Pyridine-3-sulfonyl)-1H,2H,3H,4H,5H,6H-pyrrolo[3,4-c]pyrrol-2-yl]-2-(1H-1,2,3,4-tetrazol-1-yl)ethan-1-one] | 75 to 250 | 1 to 40 | 75 to 250 | 75 to 250 | 1 to 40 | 75 to 250 | 75 to 250 | 1 to 40 | 75 to 250
4 | O=C(Cc1ccc[nH]1)N1CC2=C(C1)CN(S(=O)(=O)c1cccnc1)C2 [Example 18-73, 1-[5-(Pyridine-3-sulfonyl)-1H,2H,3H,4H,5H,6H-pyrrolo[3,4-c]pyrrol-2-yl]-2-(1H-pyrrol-2-yl)ethan-1-one] | 75 to 250 | 1 to 40 | 75 to 250 | 75 to 250 | 1 to 40 | 75 to 250 | 75 to 250 | 1 to 40 | 75 to 250
5 | CC[C@@H](O)C(=O)N1CC2=C(C1)CN(S(=O)(=O)c1ccc3c(c1)N(C)CCO3)C2 [Example 18-76, (2R)-2-hydroxy-1-{5-[(4-methyl-3,4-dihydro-2H-1,4-benzoxazin-6-yl)sulfonyl]-1H,2H,3H,4H,5H,6H-pyrrolo[3,4-c]pyrrol-2-yl}butan-1-one] | 75 to 250 | 0.1 to 1 | 75 to 250 | 75 to 250 | 1 to 40 | 75 to 250 | 75 to 250 | 1 to 40 | 75 to 250
6 | O=C(NCc1cccnc1)N1CC2=C(C1)CN(S(=O)(=O)c1ccc3ncsc3c1)C2 [Example 20-56, 5-(1,3-Benzothiazole-6-sulfonyl)-N-(pyridin-3-ylmethyl)-1H,2H,3H,4H,5H,6H-pyrrolo[3,4-c]pyrrole-2-carboxamide] | 75 to 250 | 1 to 40 | 250 to 500 | 75 to 250 | 0.1 to 1 | 75 to 250 | 75 to 250 | 1 to 40 | 250 to 500

Other lines, results leading:

Row | activation at 1.54 µM (PKR(wt)) [%] | AC50 (PKR(wt)) [µM] | Emax (PKR(wt)) [%] | activation at 1.54 µM (PKR(G332S)) [%] | AC50 (PKR(G332S)) [µM] | Emax (PKR(G332S)) [%] | activation at 1.54 µM (PKR(R510Q)) [%] | AC50 (PKR(R510Q)) [µM] | Emax (PKR(R510Q)) [%] | Compound
7 | 250 to 50000 | ≤ 0.1 | 250 to 500 | 75 to 250 | ≤ 0.1 | 75 to 250 | 250 to 50000 | ≤ 0.1 | 250 to 500 | COc1ccc(CNC(=O)N2CC3=C(C2)CN(S(=O)(=O)c2ccc(OC(F)F)cc2)C3)cc1 [Example 21-10, 5-[4-(Difluoromethoxy)benzenesulfonyl]-N-[(4-methoxyphenyl)methyl]-1H,2H,3H,4H,5H,6H-pyrrolo[3,4-c]pyrrole-2-carboxamide]
8 | 250 to 50000 | ≤ 0.1 | 250 to 500 | 75 to 250 | ≤ 0.1 | 75 to 250 | 250 to 50000 | ≤ 0.1 | 250 to 500 | COc1cccc(CNC(=O)N2CC3=C(C2)CN(S(=O)(=O)c2ccc(OC(F)F)cc2)C3)c1 [Example 21-11, 5-[4-(Difluoromethoxy)benzenesulfonyl]-N-[(3-methoxyphenyl)methyl]-1H,2H,3H,4H,5H,6H-pyrrolo[3,4-c]pyrrole-2-carboxamide]
9 | 250 to 50000 | 0.1 to 1 | 250 to 500 | 75 to 250 | ≤ 0.1 | 75 to 250 | 250 to 50000 | 0.1 to 1 | 250 to 500 | COc1ccccc1CNC(=O)N1CC2=C(C1)CN(S(=O)(=O)c1ccc(OC(F)F)cc1)C2 [Example 21-12, 5-[4-(Difluoromethoxy)benzenesulfonyl]-N-[(2-methoxyphenyl)methyl]-1H,2H,3H,4H,5H,6H-pyrrolo[3,4-c]pyrrole-2-carboxamide]
10 | 250 to 50000 | 0.1 to 1 | 250 to 500 | 75 to 250 | ≤ 0.1 | 75 to 250 | 250 to 50000 | 0.1 to 1 | 250 to 500 | O=C(NCc1ccc(F)cc1)N1CC2=C(C1)CN(S(=O)(=O)c1ccc(OC(F)F)cc1)C2 [Example 21-13, 5-[4-(Difluoromethoxy)benzenesulfonyl]-N-[(4-fluorophenyl)methyl]-1H,2H,3H,4H,5H,6H-pyrrolo[3,4-c]pyrrole-2-carboxamide]
11 | 250 to 50000 | 0.1 to 1 | 250 to 500 | 75 to 250 | 0.1 to 1 | 75 to 250 | 250 to 50000 | 1 to 40 | 250 to 500 | O=C(NCc1cccc(F)c1)N1CC2=C(C1)CN(S(=O)(=O)c1ccc(OC(F)F)cc1)C2 [Example 21-14, 5-[4-(Difluoromethoxy)benzenesulfonyl]-N-[(3-fluorophenyl)methyl]-1H,2H,3H,4H,5H,6H-pyrrolo[3,4-c]pyrrole-2-carboxamide]
12 | 250 to 50000 | ≤ 0.1 | 250 to 500 | 75 to 250 | ≤ 0.1 | 75 to 250 | 250 to 50000 | ≤ 0.1 | 250 to 500 | O=C(NCc1ccccc1F)N1CC2=C(C1)CN(S(=O)(=O)c1ccc(OC(F)F)cc1)C2 [Example 21-15, 5-[4-(Difluoromethoxy)benzenesulfonyl]-N-[(2-fluorophenyl)methyl]-1H,2H,3H,4H,5H,6H-pyrrolo[3,4-c]pyrrole-2-carboxamide]
13 | 250 to 50000 | ≤ 0.1 | 250 to 500 | 75 to 250 | ≤ 0.1 | 75 to 250 | 250 to 50000 | 0.1 to 1 | 250 to 500 | COc1ccc(CNC(=O)N2CC3=C(C2)CN(S(=O)(=O)c2ccc4ncsc4c2)C3)cc1 [Example 21-16, 5-(1,3-Benzothiazole-6-sulfonyl)-N-[(4-methoxyphenyl)methyl]-1H,2H,3H,4H,5H,6H-pyrrolo[3,4-c]pyrrole-2-carboxamide]
14 | 75 to 250 | ≤ 0.1 | 75 to 250 | 75 to 250 | ≤ 0.1 | 75 to 250 | 75 to 250 | 1 to 40 | 75 to 250 | COc1cccc(CNC(=O)N2CC3=C(C2)CN(S(=O)(=O)c2ccc4ncsc4c2)C3)c1 [Example 21-17, 5-(1,3-Benzothiazole-6-sulfonyl)-N-[(3-methoxyphenyl)methyl]-1H,2H,3H,4H,5H,6H-pyrrolo[3,4-c]pyrrole-2-carboxamide]
15 | 250 to 50000 | 0.1 to 1 | 250 to 500 | 75 to 250 | ≤ 0.1 | 75 to 250 | 250 to 50000 | 0.1 to 1 | 250 to 500 | COc1ccccc1CNC(=O)N1CC2=C(C1)CN(S(=O)(=O)c1ccc3ncsc3c1)C2 [Example 21-18, 5-(1,3-Benzothiazole-6-sulfonyl)-N-[(2-methoxyphenyl)methyl]-1H,2H,3H,4H,5H,6H-pyrrolo[3,4-c]pyrrole-2-carboxamide]
16 | 75 to 250 | 0.1 to 1 | 250 to 500 | 75 to 250 | 0.1 to 1 | 75 to 250 | 75 to 250 | 0.1 to 1 | 250 to 500 | O=C(NCc1ccc(F)cc1)N1CC2=C(C1)CN(S(=O)(=O)c1ccc3ncsc3c1)C2 [Example 21-19, 5-(1,3-Benzothiazole-6-sulfonyl)-N-[(4-fluorophenyl)methyl]-1H,2H,3H,4H,5H,6H-pyrrolo[3,4-c]pyrrole-2-carboxamide]
17 | 250 to 50000 | ≤ 0.1 | 250 to 500 | 75 to 250 | ≤ 0.1 | 75 to 250 | 250 to 50000 | ≤ 0.1 | 250 to 500 | O=C(NCc1ccccc1F)N1CC2=C(C1)CN(S(=O)(=O)c1ccc3ncsc3c1)C2 [Example 21-20, 5-(1,3-Benzothiazole-6-sulfonyl)-N-[(2-fluorophenyl)methyl]-1H,2H,3H,4H,5H,6H-pyrrolo[3,4-c]pyrrole-2-carboxamide]
18 | 75 to 250 | 1 to 40 | 250 to 500 | 75 to 250 | 0.1 to 1 | 75 to 250 | 75 to 250 | 1 to 40 | 250 to 500 | O=C(NCc1cccc(F)c1)N1CC2=C(C1)CN(S(=O)(=O)c1ccc3ncsc3c1)C2 [Example 21-36, 5-(1,3-Benzothiazole-6-sulfonyl)-N-[(3-fluorophenyl)methyl]-1H,2H,3H,4H,5H,6H-pyrrolo[3,4-c]pyrrole-2-carboxamide]
